Assay results reported in ChEMBL document CHEMBL5518190, “Advancements in dual-target inhibitors of PI3K for tumor therapy: Clinical progress, development strategies, prospects” (Eur J Med Chem, 2024).
In brackets after ≈: the same amount, converted by molar mass.

Legend:
A-375 = test: Antiproliferative activity against human A-375 cells assessed as reduction in cell viability measured after 48 hrs by MTT assay; type: functional, cell-based; conditions: A-375, 48 h
B16 = test: Antiproliferative activity against mouse B16 cells assessed as reduction in cell viability measured for 48 hrs by MTT assay; type: functional, cell-based; conditions: B16, 48 h
[1] = Antiproliferative activity against human A2780cis cells assessed as inhibition of cell growth incubated for 72 hrs by cell-titer glo assay; type: functional, cell-based
[2] = Cytotoxicity against human SK-ES cells assessed as reduction in cell viability incubated for 48 hrs by CellTiter-Blue reagent based […] assay; type: functional
Histone deacetylase 8 [3] = biological target: T1, Histone deacetylase 8 (Homo sapiens, UniProt Q9BY41); test: Inhibition of HDAC8 (unknown origin) by fluorescence based assay
T1 sequence (Q9BY41 whole entry): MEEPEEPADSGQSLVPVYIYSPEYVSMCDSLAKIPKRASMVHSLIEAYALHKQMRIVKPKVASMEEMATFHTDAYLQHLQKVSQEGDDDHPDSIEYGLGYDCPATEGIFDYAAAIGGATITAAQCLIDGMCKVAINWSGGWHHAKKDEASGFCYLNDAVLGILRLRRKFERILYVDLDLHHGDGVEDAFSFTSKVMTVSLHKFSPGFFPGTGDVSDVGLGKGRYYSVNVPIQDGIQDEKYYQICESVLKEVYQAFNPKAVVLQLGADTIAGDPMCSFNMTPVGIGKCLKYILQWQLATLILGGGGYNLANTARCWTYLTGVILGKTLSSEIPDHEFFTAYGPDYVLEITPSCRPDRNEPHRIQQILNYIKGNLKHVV

[4] = biological target: T2, Phosphatidylinositol 4,5-bisphosphate 3-kinase catalytic subunit gamma isoform (Homo sapiens, UniProt P48736)
T2 sequence (P48736 whole entry, canonical isoform): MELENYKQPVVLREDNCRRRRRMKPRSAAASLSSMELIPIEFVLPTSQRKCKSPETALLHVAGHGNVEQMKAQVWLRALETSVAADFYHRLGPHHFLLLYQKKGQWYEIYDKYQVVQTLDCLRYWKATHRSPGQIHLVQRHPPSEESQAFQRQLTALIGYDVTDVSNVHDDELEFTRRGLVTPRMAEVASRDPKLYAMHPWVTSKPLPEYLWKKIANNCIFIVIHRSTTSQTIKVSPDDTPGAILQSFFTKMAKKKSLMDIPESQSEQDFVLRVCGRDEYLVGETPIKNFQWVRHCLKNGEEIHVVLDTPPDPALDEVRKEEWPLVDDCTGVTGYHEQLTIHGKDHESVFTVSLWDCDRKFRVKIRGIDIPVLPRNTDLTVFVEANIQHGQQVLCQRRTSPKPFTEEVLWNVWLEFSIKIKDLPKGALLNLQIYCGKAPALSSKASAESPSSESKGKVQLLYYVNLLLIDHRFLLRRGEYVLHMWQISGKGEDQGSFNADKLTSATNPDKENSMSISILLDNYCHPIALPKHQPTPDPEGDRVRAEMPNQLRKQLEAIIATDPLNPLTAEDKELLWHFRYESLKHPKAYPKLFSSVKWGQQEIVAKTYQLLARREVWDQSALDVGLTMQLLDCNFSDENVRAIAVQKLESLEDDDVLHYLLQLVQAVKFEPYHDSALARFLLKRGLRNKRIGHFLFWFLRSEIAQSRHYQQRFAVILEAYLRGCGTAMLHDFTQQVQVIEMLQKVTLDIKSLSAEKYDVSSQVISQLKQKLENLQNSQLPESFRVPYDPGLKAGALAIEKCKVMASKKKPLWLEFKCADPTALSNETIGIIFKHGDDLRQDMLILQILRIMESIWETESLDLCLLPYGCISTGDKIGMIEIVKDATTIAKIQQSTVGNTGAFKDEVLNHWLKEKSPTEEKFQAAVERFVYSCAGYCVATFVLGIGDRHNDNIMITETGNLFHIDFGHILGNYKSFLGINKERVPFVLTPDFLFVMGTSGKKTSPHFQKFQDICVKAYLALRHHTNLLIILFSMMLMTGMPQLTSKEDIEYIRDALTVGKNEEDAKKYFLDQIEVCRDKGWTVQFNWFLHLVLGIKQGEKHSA

[5] = biological target: T3, Phosphatidylinositol 4,5-bisphosphate 3-kinase catalytic subunit alpha isoform (Homo sapiens, UniProt P42336)
T3 sequence (P42336 whole entry, canonical isoform): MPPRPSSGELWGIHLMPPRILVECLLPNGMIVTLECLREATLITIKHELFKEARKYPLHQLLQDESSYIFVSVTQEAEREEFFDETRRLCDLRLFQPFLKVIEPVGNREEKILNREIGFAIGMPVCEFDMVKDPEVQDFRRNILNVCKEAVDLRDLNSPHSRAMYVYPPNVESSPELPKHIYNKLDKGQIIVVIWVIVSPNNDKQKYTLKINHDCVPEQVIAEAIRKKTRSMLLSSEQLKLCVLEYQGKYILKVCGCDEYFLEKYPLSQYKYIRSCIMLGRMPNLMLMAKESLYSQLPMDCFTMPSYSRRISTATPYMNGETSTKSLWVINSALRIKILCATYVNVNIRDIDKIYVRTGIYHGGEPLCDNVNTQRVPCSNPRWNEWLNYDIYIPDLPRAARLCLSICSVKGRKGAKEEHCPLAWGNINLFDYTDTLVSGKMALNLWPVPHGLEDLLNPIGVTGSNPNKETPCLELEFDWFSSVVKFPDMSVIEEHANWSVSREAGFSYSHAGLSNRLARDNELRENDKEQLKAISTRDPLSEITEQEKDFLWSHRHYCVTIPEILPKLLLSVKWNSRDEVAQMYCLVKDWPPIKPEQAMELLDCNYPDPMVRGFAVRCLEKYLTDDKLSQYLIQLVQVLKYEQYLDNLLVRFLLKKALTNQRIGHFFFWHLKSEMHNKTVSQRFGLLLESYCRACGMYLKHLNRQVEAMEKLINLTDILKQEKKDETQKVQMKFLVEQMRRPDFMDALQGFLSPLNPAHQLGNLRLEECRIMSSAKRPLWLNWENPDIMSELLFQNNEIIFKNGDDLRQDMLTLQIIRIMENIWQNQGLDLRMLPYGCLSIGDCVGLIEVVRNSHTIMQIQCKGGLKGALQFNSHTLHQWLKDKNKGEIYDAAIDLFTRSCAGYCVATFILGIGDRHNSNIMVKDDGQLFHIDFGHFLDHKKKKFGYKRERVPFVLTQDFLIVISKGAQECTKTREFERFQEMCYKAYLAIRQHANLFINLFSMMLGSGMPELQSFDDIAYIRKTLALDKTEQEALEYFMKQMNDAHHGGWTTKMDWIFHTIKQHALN

Histone deacetylase 8 [6] = biological target: T1, Histone deacetylase 8; test: Inhibition of HDAC8 (unknown origin) using Fluoro-Substrate Peptide as substrate by fluorescence assay
Histone deacetylase 1 = Histone deacetylase 1 (Homo sapiens, UniProt Q13547); test: Inhibition of HDAC1 (unknown origin) by fluorescence based assay
[7] = biological target: T3, Phosphatidylinositol 4,5-bisphosphate 3-kinase catalytic subunit alpha isoform; test: Inhibition of full length wild type PI3Kalpha (unknown origin)
[8] = biological target: T4, Phosphatidylinositol 4,5-bisphosphate 3-kinase catalytic subunit beta isoform (Homo sapiens, UniProt P42338); test: Inhibition of human recombinant PI3Kbeta
T4 sequence (P42338 whole entry, canonical isoform): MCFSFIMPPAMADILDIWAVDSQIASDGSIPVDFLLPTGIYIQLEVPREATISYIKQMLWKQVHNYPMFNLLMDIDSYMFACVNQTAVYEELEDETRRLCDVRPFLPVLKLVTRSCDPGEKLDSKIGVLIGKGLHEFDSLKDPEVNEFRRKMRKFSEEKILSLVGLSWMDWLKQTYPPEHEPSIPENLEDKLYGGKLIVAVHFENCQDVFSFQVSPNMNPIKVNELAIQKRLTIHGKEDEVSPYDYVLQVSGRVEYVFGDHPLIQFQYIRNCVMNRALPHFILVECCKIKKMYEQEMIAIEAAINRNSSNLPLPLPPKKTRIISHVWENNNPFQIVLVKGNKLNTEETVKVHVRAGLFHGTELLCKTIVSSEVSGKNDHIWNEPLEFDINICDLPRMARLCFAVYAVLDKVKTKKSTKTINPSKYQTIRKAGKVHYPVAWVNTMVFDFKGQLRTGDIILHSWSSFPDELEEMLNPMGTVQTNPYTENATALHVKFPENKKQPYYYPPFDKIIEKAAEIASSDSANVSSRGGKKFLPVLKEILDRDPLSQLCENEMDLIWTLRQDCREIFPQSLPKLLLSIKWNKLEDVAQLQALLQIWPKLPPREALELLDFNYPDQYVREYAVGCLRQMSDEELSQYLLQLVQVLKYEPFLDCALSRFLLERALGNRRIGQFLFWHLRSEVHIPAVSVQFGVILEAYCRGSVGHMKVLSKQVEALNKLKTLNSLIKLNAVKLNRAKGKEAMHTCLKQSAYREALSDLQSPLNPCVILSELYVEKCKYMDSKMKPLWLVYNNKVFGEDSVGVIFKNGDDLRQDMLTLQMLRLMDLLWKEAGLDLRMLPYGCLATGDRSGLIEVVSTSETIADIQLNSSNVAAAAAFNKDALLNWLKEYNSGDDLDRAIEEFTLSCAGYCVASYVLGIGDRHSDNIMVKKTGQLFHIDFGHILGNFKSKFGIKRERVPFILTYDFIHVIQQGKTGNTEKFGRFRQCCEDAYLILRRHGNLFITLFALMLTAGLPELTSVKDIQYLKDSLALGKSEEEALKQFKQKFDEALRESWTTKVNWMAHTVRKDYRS

[9] = biological target: Mitogen-activated protein kinase 1 (Homo sapiens) (UniProt P28482); test: Inhibition of ERK2 (unknown origin) at 1 uM relative to control by ADP-Glo assay
Mitogen-activated protein kinase 1 (Homo sapiens), sequence (P28482 whole entry, canonical isoform): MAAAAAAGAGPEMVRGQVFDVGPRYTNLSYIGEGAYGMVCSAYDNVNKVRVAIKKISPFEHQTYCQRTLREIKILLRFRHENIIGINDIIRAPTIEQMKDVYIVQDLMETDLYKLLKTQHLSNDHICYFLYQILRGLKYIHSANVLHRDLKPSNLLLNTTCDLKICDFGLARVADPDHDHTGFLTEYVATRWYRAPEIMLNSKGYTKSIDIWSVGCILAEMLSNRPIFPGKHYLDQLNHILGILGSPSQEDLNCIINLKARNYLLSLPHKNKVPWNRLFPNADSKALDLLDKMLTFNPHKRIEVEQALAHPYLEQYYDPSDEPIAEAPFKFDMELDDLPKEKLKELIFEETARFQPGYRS

[10] = biological target: T3, Phosphatidylinositol 4,5-bisphosphate 3-kinase catalytic subunit alpha isoform; test: Inhibition of PI3Kalpha (unknown origin) at 1 uM by kinase-glo luminescent assay relative to control
[11] = biological target: Serine/threonine-protein kinase mTOR (Homo sapiens, UniProt P42345)
[12] = biological target: T2, Phosphatidylinositol 4,5-bisphosphate 3-kinase catalytic subunit gamma isoform; test: Inhibition of PI3Kgamma (unknown origin) using […] as substrate preincubated for 15 mins followed by substrate addition and measured after 1 hr by HTRF assay
[13] = biological target: T3, Phosphatidylinositol 4,5-bisphosphate 3-kinase catalytic subunit alpha isoform; test: Inhibition of PI3Kalpha (unknown origin) using PIP2 as substrate preincubated for 15 mins followed by substrate addition and measured after 1 hr by HTRF assay
[14] = biological target: T4, Phosphatidylinositol 4,5-bisphosphate 3-kinase catalytic subunit beta isoform; test: Inhibition of PI3Kbeta (unknown origin) using […] as substrate preincubated for 15 mins followed by substrate addition and measured after 1 hr by HTRF assay
[15] = biological target: T5, Phosphatidylinositol 4,5-bisphosphate 3-kinase catalytic subunit delta isoform (Homo sapiens, UniProt O00329); test: Inhibition of PI3Kdelta (unknown origin) using PIP2 as substrate preincubated for 15 mins followed by substrate addition and measured after 1 hr by HTRF assay
T5 sequence (O00329 whole entry): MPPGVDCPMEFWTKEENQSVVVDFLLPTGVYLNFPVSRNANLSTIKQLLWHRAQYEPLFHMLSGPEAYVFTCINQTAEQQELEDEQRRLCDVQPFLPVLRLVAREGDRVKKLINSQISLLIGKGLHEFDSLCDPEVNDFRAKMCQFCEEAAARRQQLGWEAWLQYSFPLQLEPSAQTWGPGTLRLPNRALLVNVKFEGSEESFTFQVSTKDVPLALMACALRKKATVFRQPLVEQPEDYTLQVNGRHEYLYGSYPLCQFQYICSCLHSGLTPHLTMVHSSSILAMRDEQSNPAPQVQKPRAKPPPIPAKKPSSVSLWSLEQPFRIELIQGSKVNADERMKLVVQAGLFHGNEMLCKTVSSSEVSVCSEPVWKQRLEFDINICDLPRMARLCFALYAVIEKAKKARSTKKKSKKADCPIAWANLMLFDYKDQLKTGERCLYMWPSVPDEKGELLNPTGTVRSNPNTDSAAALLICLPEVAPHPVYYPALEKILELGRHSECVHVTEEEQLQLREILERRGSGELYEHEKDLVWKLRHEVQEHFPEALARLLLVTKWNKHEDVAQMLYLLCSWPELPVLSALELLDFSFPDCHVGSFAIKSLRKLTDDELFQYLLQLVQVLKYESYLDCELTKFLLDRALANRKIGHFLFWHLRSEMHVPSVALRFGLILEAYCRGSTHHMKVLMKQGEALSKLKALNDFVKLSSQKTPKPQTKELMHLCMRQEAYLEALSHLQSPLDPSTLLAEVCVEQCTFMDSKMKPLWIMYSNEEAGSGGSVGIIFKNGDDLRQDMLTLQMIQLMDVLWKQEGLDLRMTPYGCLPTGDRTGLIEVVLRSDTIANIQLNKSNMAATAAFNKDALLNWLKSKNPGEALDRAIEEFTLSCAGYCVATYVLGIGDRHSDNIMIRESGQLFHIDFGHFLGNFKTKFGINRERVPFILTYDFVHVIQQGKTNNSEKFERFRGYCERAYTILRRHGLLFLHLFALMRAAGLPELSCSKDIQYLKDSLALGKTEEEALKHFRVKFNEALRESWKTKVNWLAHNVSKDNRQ

[16] = biological target: Epidermal growth factor receptor (Homo sapiens, UniProt P00533); test: Inhibition of EGFR (unknown origin)
Epidermal growth factor receptor, sequence (P00533 whole entry): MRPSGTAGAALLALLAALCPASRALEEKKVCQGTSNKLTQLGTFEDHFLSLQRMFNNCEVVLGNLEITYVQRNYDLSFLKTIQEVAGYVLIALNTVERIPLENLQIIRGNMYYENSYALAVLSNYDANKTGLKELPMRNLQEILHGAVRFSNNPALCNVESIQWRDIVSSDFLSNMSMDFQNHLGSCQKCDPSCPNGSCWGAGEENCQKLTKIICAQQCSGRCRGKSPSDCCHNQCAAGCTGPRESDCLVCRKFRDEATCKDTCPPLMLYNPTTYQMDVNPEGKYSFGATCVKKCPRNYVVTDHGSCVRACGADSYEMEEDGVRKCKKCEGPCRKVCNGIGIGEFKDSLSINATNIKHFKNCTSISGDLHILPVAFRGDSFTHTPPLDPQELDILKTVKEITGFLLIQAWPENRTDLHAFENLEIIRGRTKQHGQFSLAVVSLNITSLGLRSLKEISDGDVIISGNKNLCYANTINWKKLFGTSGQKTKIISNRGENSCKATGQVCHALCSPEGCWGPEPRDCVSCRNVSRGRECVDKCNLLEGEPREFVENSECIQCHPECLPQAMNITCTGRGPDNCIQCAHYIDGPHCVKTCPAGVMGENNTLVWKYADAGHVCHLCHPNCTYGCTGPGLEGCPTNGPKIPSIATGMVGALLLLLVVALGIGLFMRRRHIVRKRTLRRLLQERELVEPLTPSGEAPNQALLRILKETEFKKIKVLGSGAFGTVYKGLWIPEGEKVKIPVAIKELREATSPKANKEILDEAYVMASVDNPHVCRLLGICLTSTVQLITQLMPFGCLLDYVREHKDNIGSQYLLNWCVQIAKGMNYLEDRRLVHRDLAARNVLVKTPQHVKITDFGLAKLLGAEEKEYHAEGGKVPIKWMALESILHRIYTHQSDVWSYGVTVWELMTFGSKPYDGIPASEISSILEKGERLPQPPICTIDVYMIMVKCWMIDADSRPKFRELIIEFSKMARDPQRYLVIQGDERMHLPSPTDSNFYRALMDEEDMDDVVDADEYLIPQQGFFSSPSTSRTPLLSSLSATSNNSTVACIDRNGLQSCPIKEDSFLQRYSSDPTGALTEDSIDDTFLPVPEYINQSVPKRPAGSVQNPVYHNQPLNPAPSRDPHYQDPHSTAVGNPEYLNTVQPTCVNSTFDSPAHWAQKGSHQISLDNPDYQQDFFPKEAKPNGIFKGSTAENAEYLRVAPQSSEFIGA

CC(C)c1cc(C(=O)N2CCc3c(sc4nc(-c5cccnc5)nc(N5CCOCC5)c34)C2)c(O)cc1O
IC50 (A-375): 2.29 µg/mL (≈ 4.31 µM)

CC(C)c1cc(C(=O)N2CCc3c(sc4ncnc(N5CCOCC5)c34)C2)c(O)cc1O
IC50 (B16): 0.47 µg/mL (≈ 1.03 µM)

CC(C)OC(=O)N1CCC(Nc2ncnc3ccc(-c4cnc(Cl)c(NS(=O)(=O)c5ccc(F)cc5F)c4)nc23)CC1
IC50 [1]: 213 nM
IC50 [2]: 99.5 nM

O=C(NO)c1ccc(/C=N/NC(=O)c2cc(N3CCOCC3)nc(-c3cccc4[nH]ncc34)n2)cc1
IC50 (Histone deacetylase 8 [3]): 66.5 nM

COc1c(OCCCCCC(=O)NO)ccc2c1N=C(NC(=O)c1ccccc1)N1CCN=C21
IC50 [4]: 25 nM
IC50 [5]: 2.98 nM
IC50 (Histone deacetylase 8 [6]): 153 nM

CC(C)[C@H]1NC(=O)C[C@H]2/C=C/CCSSC[C@@H](NC1=O)C(=O)N[C@H](Cc1ccccc1)C(=O)NCC(=O)O2
IC50 (Histone deacetylase 1): 2.5 nM
IC50 [7]: 27300 nM

O=C(Nc1ncc2ncc(-c3cn[nH]c3)cc2n1)NC1CCCC1
IC50 [8]: 5 nM

Cn1cc(-c2n[nH]c3nc(NC(=O)NC4CCCC4)ncc23)cn1
inhibition [9]: 79.5%
inhibition [10]: 4%

CCn1c(=O)c(-c2cc[nH]n2)cc2c(C)nc(N)nc21 [VOXTALISIB]
IC50 [11]: 150 nM

CCOC(=O)c1nn(-c2ccccc2)c(=O)c2c(N)c(C#N)c(-c3cccs3)cc12
IC50 [12]: 30000 nM
IC50 [13]: 10500 nM
IC50 [14]: 32700 nM
IC50 [15]: 7470 nM
IC50 [16]: 114000 nM
